Assay results as given in paper PMC10892984, “Novel Antineoplastic Inducers of Mitochondrial Apoptosis in Human Cancer Cells” (Molecules, 2024).

Test system: HL-60 (TB)
Conditions: for TGI: HL-60 (TB), leukemia, mutant p53, 48 h; for CC50: read-out: LC50

For `COc1cc2c(c(OC)c1OC)-c1ccc(NNC(=S)N(Cc3cccc(C[N+](Cc4cccc(CNC56CC7CC(CC(C7)C5)C6)c4)(Cc4cccc(CNC56CC7CC(CC(C7)C5)C6)c4)Cc4cccc(CN(C(=S)NNc5ccc6c(cc5=O)C(NC(C)=O)CCc5cc(OC)c(OC)c(OC)c5-6)C56CC7CC(CC(C7)C5)C6)c4)c3)C34CC5CC(CC(C5)C3)C4)c(=O)cc1C(NC(C)=O)CC2` [Compound 3, [(bis{3-[(tricyclo[3.3.1.1^3,7]decan-1-ylamino)methyl]benzyl}ammonio)bis(methanediylbenzene-3,1-diylmethanediyl)]di-2-[(aS,7S)-7-(acetylamino)-1,2,3-trimethoxy-9-oxo-5,6,7,9-tetrahydrobenzo[a]heptalen-10-yl]-N-(tricyclo[3.3.1.1^3,7]decan-1-yl)hydrazinecarbothioamide chloride pentahydrate], the TGI was 1.03 µM.
With `c1cc(CNC23CC4CC(CC(C4)C2)C3)cc(C[N+](Cc2cccc(CNC34CC5CC(CC(C5)C3)C4)c2)(Cc2cccc(CNC34CC5CC(CC(C5)C3)C4)c2)Cc2cccc(CNC34CC5CC(CC(C5)C3)C4)c2)c1` (centres unmarked) [Compound 1, tetrakis{3-[(tricyclo[3.3.1.1^3,7]decan-1-ammonio)methyl]benzyl}ammonium pentachloride] the CC50 (Homo sapiens, HL-60, 48 h) was > 50 µM.
In the case of `COc1cc2c(c(OC)c1OC)-c1ccc(NNC(N)=S)c(=O)cc1C(NC(C)=O)CC2` [Compound 2, N-[(aS,7S)-10-(2-carbamothioylhydrazinyl)-1,2,3-trimethoxy-9-oxo-5,6,7,9-tetrahydrobenzo[a]heptalen-7-yl]acetamide monohydrate × ⅔ (ethyl acetate)], the TGI is reported as 1.26 µM, the GI50 (Homo sapiens, HL-60, 48 h) is reported as 0.113 µM and the CC50 (Homo sapiens, HL-60, 48 h) is reported as > 100 µM.
